Experimental data published in ChEMBL document CHEMBL1201862, “PubChem BioAssay data set” (2004).
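Compound exposure: 48 hours, 5 concentrations, 96-well plates. GI50 is the concentration that inhibits growth by half.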 Calls of active or inactive are those of the source. No stated cut-off is given here; in the data, active = GI50 up to about 1.1 µM and inactive = higher.

Tests used:
Assay in all cases: NCI anticancer screen, dose series, 48 h
COLO 205 = test system: COLO 205
HCT-15 = test system: HCT-15
UACC-257 = test system: UACC-257
SK-OV-3 = test system: SK-OV-3
SF-295 = test system: SF-295
Hs-578T = test system: Hs-578T
NCI-H460 = test system: NCI-H460
U-251 = test system: U-251
K562 = test system: K562
UO-31 = test system: UO-31
ACHN = test system: ACHN
MDA-MB-231 = test system: MDA-MB-231
SW-620 = test system: SW-620
SN12C = test system: SN12C
UACC-62 = test system: UACC-62
OVCAR-8 = test system: OVCAR-8
SF-268 = test system: SF-268
HL-60 = test system: HL-60
KM12 = test system: KM12
A498 = test system: A498

| Compound | GI50 (COLO 205) | GI50 (HCT-15) [µM] | GI50 (UACC-257) | GI50 (SK-OV-3) | GI50 (SF-295) | GI50 (Hs-578T) | GI50 (NCI-H460) | GI50 (U-251) | GI50 (K562) | GI50 (UO-31) | GI50 (ACHN) | GI50 (MDA-MB-231) | GI50 (SW-620) | GI50 (SN12C) | GI50 (UACC-62) | GI50 (OVCAR-8) | GI50 (SF-268) | GI50 (HL-60) | GI50 (KM12) | GI50 (A498) |
| --- | --- | --- | --- | --- | --- | --- | --- | --- | --- | --- | --- | --- | --- | --- | --- | --- | --- | --- | --- | --- |
| CC(C)(C)OC(=O)N(CCNS(=O)(=O)c1cccc2cnccc12)CCC(=O)ON1C(=O)CCC1=O | > 100 µM (inactive) | > 100 | > 100 µM (inactive) | > 100 µM (inactive) | > 100 µM (inactive) | > 100 µM (inactive) | 51.9 µM (inactive) | > 100 µM (inactive) | > 100 µM (inactive) | > 100 µM (inactive) | > 100 µM (inactive) | > 100 µM (inactive) | > 100 µM (inactive) | > 100 µM (inactive) | > 100 µM (inactive) | > 100 µM (inactive) | > 100 µM (inactive) | – | – | – |
| COc1ccc2c(c1)[n+]([O-])c1cc(C#N)ccc1[n+]2[O-] | 0.586 µM (active) | 0.723 | 3.74 µM (inactive) | 18.5 µM (inactive) | 0.767 µM (active) | 2.07 µM (inactive) | 0.547 µM (active) | 3.72 µM (inactive) | 6.76 µM (inactive) | 5.31 µM (inactive) | 1.69 µM (inactive) | 12.5 µM (inactive) | 4.34 µM (inactive) | 3.17 µM (inactive) | 2.94 µM (inactive) | 15.4 µM (inactive) | 13.3 µM (inactive) | 4.63 µM (inactive) | 2.38 µM (inactive) | – |
| CN1C2=C(CC3=C1CC(C)(C)CC3=O)C(=O)CC(C)(C)C2 | – | > 100 | – | > 100 µM (inactive) | – | > 100 µM (inactive) | > 100 µM (inactive) | > 100 µM (inactive) | > 100 µM (inactive) | > 100 µM (inactive) | > 100 µM (inactive) | – | > 100 µM (inactive) | > 100 µM (inactive) | > 100 µM (inactive) | > 100 µM (inactive) | > 100 µM (inactive) | > 100 µM (inactive) | > 100 µM (inactive) | > 100 µM (inactive) |
| COc1cc(C2c3cc4c(cc3OC(N3CCOCC3)C2C)OCO4)ccc1O (configuration not stated) | 25.3 µM (inactive) | 4.98 | 40.7 µM (inactive) | – | 4.31 µM (inactive) | 6.55 µM (inactive) | 12 µM (inactive) | 14.5 µM (inactive) | 4.35 µM (inactive) | 16 µM (inactive) | 21.2 µM (inactive) | – | 6.3 µM (inactive) | 40 µM (inactive) | 8.05 µM (inactive) | 26.9 µM (inactive) | 35.2 µM (inactive) | 3.72 µM (inactive) | 7.83 µM (inactive) | 17.6 µM (inactive) |
| CC(C)(C)c1cc(C2NC(=O)NC2=O)cc(C(C)(C)C)c1O (configuration not stated) | > 100 µM (inactive) | 93.3 | – | > 100 µM (inactive) | 64.4 µM (inactive) | 20.5 µM (inactive) | – | 39.5 µM (inactive) | 33.9 µM (inactive) | > 100 µM (inactive) | > 100 µM (inactive) | 35.6 µM (inactive) | 53.6 µM (inactive) | – | 45.1 µM (inactive) | 85.7 µM (inactive) | 64.6 µM (inactive) | – | 18.8 µM (inactive) | > 100 µM (inactive) |
| C[Si](C)(C)/N=C1\N2C(=NC1(C(F)(F)F)C(F)(F)F)Sc1ccccc12 | > 50 µM (inactive) | > 50 | > 50 µM (inactive) | > 50 µM (inactive) | > 50 µM (inactive) | – | > 50 µM (inactive) | > 50 µM (inactive) | > 50 µM (inactive) | > 50 µM (inactive) | > 50 µM (inactive) | – | > 50 µM (inactive) | > 50 µM (inactive) | > 50 µM (inactive) | > 50 µM (inactive) | > 50 µM (inactive) | > 50 µM (inactive) | > 50 µM (inactive) | > 50 µM (inactive) |
| CC1=C(C(=O)OCc2ccncc2)C(C2=C(C)SCCS2)C(C(=O)OCc2ccncc2)=C(C)N1 | 22.2 µM (inactive) | 25.6 | 17.1 µM (inactive) | 26.6 µM (inactive) | 18.2 µM (inactive) | 10.6 µM (inactive) | 23.4 µM (inactive) | 16.7 µM (inactive) | 20 µM (inactive) | 17.5 µM (inactive) | 34.5 µM (inactive) | 26.9 µM (inactive) | 25.6 µM (inactive) | 25.1 µM (inactive) | 16.3 µM (inactive) | 26.4 µM (inactive) | 33 µM (inactive) | 25.4 µM (inactive) | 21.3 µM (inactive) | – |
| N#Cc1c(N)nc(-c2ccc(Cl)cc2)c2c1-c1ccccc1S(=O)(=O)CC2 | > 100 µM (inactive) | > 100 | > 100 µM (inactive) | – | – | 46.1 µM (inactive) | 45.1 µM (inactive) | 37.3 µM (inactive) | > 100 µM (inactive) | > 100 µM (inactive) | > 100 µM (inactive) | > 100 µM (inactive) | > 100 µM (inactive) | 53.7 µM (inactive) | > 100 µM (inactive) | 34 µM (inactive) | 53.6 µM (inactive) | – | > 100 µM (inactive) | > 100 µM (inactive) |
| Cc1nc2c(nc1C)C(=O)c1cc(O)ccc1C2=O | 23.1 µM (inactive) | 36.9 | > 54.6 µM (inactive) | > 100 µM (inactive) | > 87.1 µM (inactive) | – | 38.2 µM (inactive) | > 100 µM (inactive) | > 70.3 µM (inactive) | > 100 µM (inactive) | > 100 µM (inactive) | – | 61.4 µM (inactive) | > 73.5 µM (inactive) | 22.3 µM (inactive) | 53.2 µM (inactive) | 74.3 µM (inactive) | 31 µM (inactive) | > 100 µM (inactive) | > 69.8 µM (inactive) |
| O=C1C(/N=N/c2ccc(-c3nc4ccccc4o3)cc2)NC(=S)N1c1ccccc1 (configuration not stated) | > 100 µM (inactive) | 62.8 | 39.1 µM (inactive) | > 100 µM (inactive) | > 100 µM (inactive) | > 100 µM (inactive) | 70.3 µM (inactive) | > 100 µM (inactive) | 67.8 µM (inactive) | > 100 µM (inactive) | > 100 µM (inactive) | > 100 µM (inactive) | 32.3 µM (inactive) | 0.692 µM (active) | 80.2 µM (inactive) | 60.3 µM (inactive) | > 100 µM (inactive) | 0.13 µM (active) | > 100 µM (inactive) | – |
| C=CCn1c(=O)c2ccccc2[n+]2c(C)c(C(=O)OCC)sc12 | > 100 µM (inactive) | > 100 | > 100 µM (inactive) | > 100 µM (inactive) | 42.7 µM (inactive) | > 100 µM (inactive) | > 100 µM (inactive) | 90.2 µM (inactive) | > 100 µM (inactive) | > 100 µM (inactive) | > 100 µM (inactive) | > 100 µM (inactive) | > 100 µM (inactive) | > 100 µM (inactive) | > 100 µM (inactive) | > 100 µM (inactive) | > 100 µM (inactive) | > 100 µM (inactive) | > 100 µM (inactive) | – |
| Oc1cc(CN2CCOCCOCCOCCOCC2)c(O)cc1CN1CCOCCOCCOCCOCC1 | 21.2 µM (inactive) | 34.9 | > 100 µM (inactive) | > 100 µM (inactive) | > 100 µM (inactive) | – | > 100 µM (inactive) | > 41.5 µM (inactive) | 24.4 µM (inactive) | > 71.3 µM (inactive) | 23.9 µM (inactive) | – | 24.4 µM (inactive) | > 10 µM (inactive) | 29.2 µM (inactive) | 40.5 µM (inactive) | > 56.5 µM (inactive) | 23.8 µM (inactive) | > 100 µM (inactive) | > 75.3 µM (inactive) |
| COc1cccc2c1CCc1ccccc1CC2=O | > 100 µM (inactive) | > 100 | > 100 µM (inactive) | > 100 µM (inactive) | > 100 µM (inactive) | – | > 100 µM (inactive) | > 100 µM (inactive) | > 100 µM (inactive) | > 100 µM (inactive) | > 100 µM (inactive) | – | > 100 µM (inactive) | > 100 µM (inactive) | > 100 µM (inactive) | > 100 µM (inactive) | > 100 µM (inactive) | > 100 µM (inactive) | > 100 µM (inactive) | > 100 µM (inactive) |
| Nc1nc2c(ncn2C2C=CC(COS(N)(=O)=O)C2)c(=O)[nH]1 (configuration not stated) | > 100 µM (inactive) | > 100 | > 100 µM (inactive) | > 100 µM (inactive) | > 100 µM (inactive) | > 100 µM (inactive) | > 100 µM (inactive) | > 100 µM (inactive) | > 100 µM (inactive) | > 100 µM (inactive) | > 100 µM (inactive) | > 100 µM (inactive) | > 100 µM (inactive) | > 100 µM (inactive) | > 100 µM (inactive) | > 100 µM (inactive) | > 100 µM (inactive) | > 100 µM (inactive) | > 100 µM (inactive) | – |
| N=C(N)NS(=O)(=O)c1ccc(NNc2c3ccccc3nc3c(C(=O)Nc4ccc(S(=O)(=O)Nc5ncccn5)cc4)cccc23)cc1 | 40.5 µM (inactive) | 34.1 | 66.7 µM (inactive) | – | 40.2 µM (inactive) | – | 45.3 µM (inactive) | 43.7 µM (inactive) | 27.2 µM (inactive) | 22.4 µM (inactive) | 31 µM (inactive) | 60.1 µM (inactive) | 37.5 µM (inactive) | 42.2 µM (inactive) | 21.2 µM (inactive) | 29.4 µM (inactive) | 47.2 µM (inactive) | 38.2 µM (inactive) | 30.6 µM (inactive) | > 100 µM (inactive) |
| O=C1C=CC2(CCC23C=CC(=O)O3)O1 (configuration not stated) | > 100 µM (inactive) | > 100 | > 100 µM (inactive) | > 100 µM (inactive) | > 100 µM (inactive) | – | > 100 µM (inactive) | > 100 µM (inactive) | > 100 µM (inactive) | > 100 µM (inactive) | > 100 µM (inactive) | – | 94.6 µM (inactive) | > 100 µM (inactive) | > 100 µM (inactive) | > 100 µM (inactive) | > 100 µM (inactive) | 74.8 µM (inactive) | > 100 µM (inactive) | > 100 µM (inactive) |
